“Also recorded” adds a separate entry of the source. d = 2'-deoxy (DNA); m = 2'-O-methyl
Experiments:
T24 cancer cell = assay: Inhibition of proliferation of cancer cells; type: cell-based, human; settings: 100 nM oligonucleotide concentration
Description: Cells were cultured and treated with oligonucleotide essentially as described in Example 27. Cells were seeded on 60 mm plates and were treated with oligonucleotide in the presence of DOTMA when they reached 70% confluency. Time course experiment: On day 1, cells were treated with a single dose of oligonucleotide at a final concentration of 100 nM. The growth medium was changed once on day 3 and cells were counted every day for 5 days, using a counting chamber. Dose-response experiment: Various concentrations of oligonucleotide (10, 25, 50, 100 or 250 nM) were added to the cells and cells were harvested and counted 3 days later. Oligonucleotides 2570, 3985 and 4690 were tested for effects on T24 cancer cell proliferation. EXAMPLE 29

[1] = test system: mutant (activated) H-ras RNA; type: cell-based, human
ras mRNA = assay: Northern blot analysis of ras expression in T24 cells; type: cell-based, human; design: inhibition of ras expression / decrease of ras mRNA: concentration or dose not given beside the values; settings: for inhibition of ras expression: T24 cells (activated codon-12); for inhibition of ras expression / decrease of ras mRNA: T24 cells, Northern blot
Description: (§1) The human urinary bladder cancer cell line T24 was obtained from the American Type Culture Collection (Rockville Md.). Cells were grown in McCoy's 5A medium with L-glutamine (GIBCO-BRL, Gaithersburg, Md.), supplemented with 10% heat-inactivated fetal calf serum and 50 U/ml each of penicillin and streptomycin. Cells were seeded on 100 mm plates. When they reached 70% confluency, they were treated with oligonucleotide. Plates were washed with 10 ml prewarmed PBS and 5 ml of OptiMEM (GIBCO) reduced-serum medium containing 2.5 μl DOTMA. Oligonucleotide was then added to the desired concentration. After 4 hours of treatment, the medium was replaced with McCoy's medium. Cells were harvested 48 hours after oligonucleotide treatment and RNA was isolated using a standard CsCl purification method. [Kingston in Current Protocols in Molecular Biology, F. M. Ausubel, R. Brent, R. E. Kingston, D. D. Moore, J. A. Smith, J. G. Seidman and K. Strahl, Eds., John Wiley and Sons, New York.] The human epithelioid carcinoma cell line HeLa 229 was obtained from the American Type Culture Collection (Bethesda, Md.). HeLa cells were maintained as monolayers on 6-well plates in Dulbecco's Modified Eagle's medium (DMEM) supplemented with 10% fetal bovine serum and 100 U/ml penicillin. Treatment with oligonucleotide and isolation of RNA were essentially as described above for T24 cells.
Northern hybridization: 10 μg of each RNA was electrophoresed on a 1.2% agarose/formaldehyde gel and transferred overnight to GeneBind 45 nylon membrane (Pharmacia LKB, Piscataway, N.J.) using standard methods. [Kingston in Current Protocols in Molecular Biology, F. M. Ausubel, R. Brent, R. E. Kingston, D. D. Moore, J. A. Smith, J. G. Seidman and K. Strahl, Eds., John Wiley and Sons, New York.] RNA was UV-crosslinked to the membrane. Double-stranded ^32P-labeled probes were synthesized using the Prime a Gene labeling kit (Promega, Madison, Wis.). The ras probe was a SalI-NheI fragment of a cDNA clone of the activated (mutant) H-ras mRNA having a GGC-to-GTC mutation at codon-12. The control probe was G3PDH. Blots were prehybridized for 15 minutes at 68° C. with the QuickHyb hybridization solution (Stratagene, La Jolla, Calif.). The heat-denatured radioactive probe (2.5×10^6 counts/2 ml hybridization solution) mixed with 100 μl of 10 mg/ml salmon sperm DNA was added and the membrane was hybridized for 1 hour at 68° C. The blots were washed twice for 15 minutes at room temperature in 2×SSC/0.1% SDS and once for 30 minutes at 60° C. with 0.1×SSC/0.1%SDS. Blots were autoradiographed and the intensity of signal was quantitated using an ImageQuant PhosphorImager (Molecular Dynamics, Sunnyvale, Calif.). Northern blots were first hybridized with the ras probe, then stripped by boiling for 15 minutes in 0.1×SSC/0.1%SDS and rehybridized with the control G3PDH probe to check for correct sample loading.

[2] = test system: ras mRNA (wild-type H-ras codon-12); assay: Northern blot analysis of ras expression in HeLa cells; type: cell-based, human; settings: HeLa cells (wild-type H-ras codon-12)
Description: as §1, with “The human epithelioid carcinoma cell line HeLa 229 was obtained from the American Type Culture Collection (Bethesda, Md.). HeLa cells were maintained as monolayers on 6-well plates in Dulbecco's Modified Eagle's medium (DMEM) supplemented with 10% fetal bovine serum and 100 U/ml penicillin. Treatment with oligonucleotide and isolation of RNA were essentially as described above for T24 cells.” left out
Northern hybridization: 10 μg of each RNA was electrophoresed on a 1.2% agarose/formaldehyde gel and transferred overnight to GeneBind 45 nylon membrane (Pharmacia LKB, Piscataway, N.J.) using standard methods. […] Blots were autoradiographed and the intensity of signal was quantitated using an ImageQuant PhosphorImager (Molecular Dynamics, Sunnyvale, Calif.). […]

c-raf mRNA = assay: Northern blot analysis of c-raf mRNA expression in T24 cells; type: cell-based, human
Text: Chimeric oligonucleotides having SEQ ID NO:7 were designed using the Genbank c-raf sequence HUMRAFR (Genbank listing x03484), synthesized and tested for inhibition of c-raf mRNA expression in T24 bladder carcinoma cells using a Northern blot assay. These chimeric oligonucleotides have central “gap” regions of 6, 8 or 10 deoxynucleotides flanked by two regions of 2′-O-methyl modified nucleotides, and are shown in Table 10. Backbones were uniformly phosphorothioate. […] These oligonucleotides are preferred.
The human urinary bladder cancer cell line T24 was obtained from the American Type Culture Collection (Rockville, Md.). Cells were grown in McCoy's 5A medium with L-glutamine (GIBCO-BRL, Gaithersburg, Md.), supplemented with 10% heat-inactivated fetal calf serum and 50 U/ml each of penicillin and streptomycin. Cells were seeded on 100 mm plates. When they reached 70% confluency, they were treated with oligonucleotide. Plates were washed with 10 ml prewarmed PBS and 5 ml of OptiMEM reduced-serum medium containing 2.5 μl DOTMA. Oligonucleotide with lipofectin was then added to the desired concentration. After 4 hours of treatment, the medium was replaced with McCoy's medium. Cells were harvested 24 to 72 hours after oligonucleotide treatment and RNA was isolated using a standard CsCl purification method. [Kingston in Current Protocols in Molecular Biology, F. M. Ausubel, R. Brent, R. E. Kingston, D. D. Moore, J. A. Smith, J. G. Seidman and K. Strahl, Eds., John Wiley and Sons, New York.] Total RNA was isolated by centrifugation of cell lysates over a CsCl cushion. RNA samples were electrophoresed through 1.2% agarose-formaldehyde gels and transferred to hybridization. membranes by capillary diffusion over a 12-14 hour period. The RNA was cross-linked to the membrane by exposure to UV light in a Stratalinker (Stratagene, La Jolla, Calif.) and hybridized to random-primed ^32P-labeled c-raf cDNA probe (obtained from ATCC) or G3PDH probe as a control. RNA was quantitated using a Phosphorimager (Molecular Dynamics, Sunnyvale, Calif.).

[3] = test system: RNA complement “Y” strand ribo(3′GAG CAU GGY AAG GCC AGG5′); assay: Base-pair specificity: single base mismatches and bulge, thermal melting; type: binding; settings: single base-pair mismatches and a bulge
Description: The ability of the 2′-modified oligonucleotides to hybridize to their complementary RNA or DNA sequences was determined by thermal melting analysis. The RNA complement was synthesized from T7 RNA polymerase and a template-promoter of DNA synthesized with an Applied Biosystems, Inc. 380B RNA species was purified by ion exchange using FPLC (LKB Pharmacia, Inc.). Natural antisense oligonucleotides or those containing 2′-modifications at specific locations were added to either the RNA or DNA complement at stoichiometric concentrations and the absorbance (260 nm) hyperchromicity upon duplex to random coil transition was monitored using a Gilford Response II spectrophotometer. These measurements were performed in a buffer of 10 mM Na-phosphate, pH 7.4, 0.1 mM EDTA, and NaCl to yield an ionic strength of 10 either 0.1 M or 1.0 M. Data was analyzed by a graphic representation of 1/Tm vs ln[Ct], where [Ct] was the total oligonucleotide concentration. From this analysis the thermodynamic parameters were determined. Based upon the information gained concerning the stability of the duplex of heteroduplex formed, the placement of modified pyrimidine into oligonucleotides were assessed for their effects on helix stability.
Base-pair specificity of 2′-deoxy-2′-fluoro modified oligonucleotides with the RNA complement (a “Y” strand) was determined by effecting single base-pair mismatches and a bulge. […]

Substance: CdCdAd CdAdCd CdGdAd CdGdGd CdGdCd CdCd [Oligonucleotide 2570, reference compound]
- inhibition of T24 cell proliferation relative to inhibition of HeLa cells (T24 cancer cell): four times as severe
- inhibition of ras-luciferase activity [1]: dose-dependent inhibition of ras-luciferase activity
- selectivity toward the mutant form of ras-luciferase as compared to the normal form [1]: approximate threefold selectivity
- inhibition of ras expression (ras mRNA): inhibited ras expression in T24 cells; also recorded: decreased ras mRNA levels in T24 cells
- inhibition of ras expression / decrease of ras mRNA (ras mRNA): 82%
- inhibition of ras expression [2]: did not inhibit ras expression in HeLa cells

Substance: TCCGTCATCGCTCCTCAGGG [Oligonucleotide 2503]
- inhibition of ras expression (ras mRNA): inhibited ras expression in T24 cells
- inhibition of ras expression / decrease of ras mRNA (ras mRNA; listed as 2503): 71%
- inhibition of ras expression [2]: inhibited ras expression in HeLa cells

Substance: TCCCGCCTGTGACATGCATT (2'-O-methyl P=S chimera, 8-deoxy gap, chemistry not fully specified) [ISIS 6717]
- inhibition of c-raf mRNA expression (c-raf mRNA): greater than 90%

Substance: TCCTCCTCCCCGCGGCGGGT (2'-O-methyl P=S chimera, chemistry not fully specified) [ISIS 7848]
- inhibition of c-raf mRNA expression (c-raf mRNA): > 70%

Substance: TTCTCCTCCTCCCCTGGCAG (sugars from the 5' end m12 d8, all phosphorothioate, T or U not given here) [ISIS 7854]
- inhibition of c-raf mRNA expression (c-raf mRNA): > 70%

Substance: TTCTCGCCCGCTCCTCCTCC (2'-O-methyl P=S chimera, chemistry not fully specified) [ISIS 7856]
- inhibition of c-raf mRNA expression (c-raf mRNA): > 70%

Substance: deoxy(CUC GUACCUUUCCGG UCC) (CUCGUACCUUUCCGGUCC; 14 2'-deoxy-2'-fluoro nucleotides, chemistry not fully specified)
- specificity of duplex formation with the RNA complement [3]: greater specificity than a like-sequenced unmodified oligonucleotide

— patent US6531584B1, “2'modified oligonucleotides” (ISIS Pharmaceuticals, Inc., priority 1990, dated 2003)
